The results in this text go back to patent US6395783B1, “Treatment of PCP addiction and PCP addiction-related behavior” (Brookhaven Science Associates, LLC, priority 2000, dated 2002).

Each structure is given as a SMILES string.

In assay [1] the test system is extracellular DA concentrations in the nucleus accumbens (NAcc). Put plainly: In vivo microdialysis of PCP-induced extracellular DA in the nucleus accumbens of freely moving rats. The arrangement: species or system rat (Sprague-Dawley). The text has this:
(§1) We explored the effects of increased endogenous GABA activity on PCP-induced extracellular DA concentrations in the prefrontal cortex (PFC) and nucleus accumbens (NAcc) of freely moving rats.
(§2) All animals were used under an IACUC-approved protocol and with strict adherence to the NIH guidelines. Adult male Sprague-Dawley rats (200-300 g, Taconic Farms), housed in the animals care facility under 12:12 light/dark conditions, were placed into 6 groups (n=3-6), anesthetized and siliconized guide cannulae were stereotactically implanted into the right NAcc (2.0 mm anterior and 1.0 mm lateral to bregms, and 7.0 mm ventral to the cortical surface) and prefrontal cortex (PFC) at least 4 days prior to study. Microdialysis probes (2.0 mm, Bioanalytical Systems, BAS, West Lafayette, Ind.) were positioned within the guide cannulae and artificial cerebrospinal fluid (ACSF, 155.0 mM […]) was administered through the probe using a CMA/100 microinfusion pump (BAS) at a flow rate of […].
Animals were placed in bowls, and probes were inserted and flushed with ACSF overnight. On the day of the study, a minimum of three samples were injected to determine baseline stability. Samples were collected for 20 min. and injected on-line (CMA/160, BAS). The average dopamine concentration of these three stable samples was defined as control (100%), and all subsequent treatment values were transformed to a percentage of that control. Upon establishing a stable baseline, the PCP was administered by intraperitoneal (i.p.) injection. The high performance liquid chromatography (HPLC) system consists of a BAS reverse-phase column (3.0μ C-18), a BAS LC-4C electrochemical transducer with a dual/glassy carbon electrode set at 650 mV, a computer that analyzes data on-line using a commercial software package (Chromograph Bioanalytical Systems), and a dual pen chart recorder. The mobile phase (flow rate 1.0 ml/min) consisted of 7.0% methanol, 50 mM sodium phosphate monobasic, 1.0 mM sodium octyl sulfate, and 0.1 mm […], pH 4.0. DA eluted at 7.5 min.
Gamma-vinyl GABA (GVG), an irreversible inhibitor of GABA-transaminase, was administered by intraperitoneal injection 2.5 hours prior to PCP (7 mg/kg). In all studies, animals were placed in the microdialysis bowls the night before the experiment and artificial cerebrospinal fluid (ACSF) was perfused through the microdialysis probes at a flow rate of 2.0 μl/min. At the end of each study, animals were sacrificed and their brains were removed and sectioned for probe placement verification.
Levels of extracellular DA were sampled from the NAcc continuously using a stereoaxically implanted probe. […]

The test system of assay [2] is extracellular DA concentrations in the prefrontal cortex (PFC). The assay is described as follows: In vivo microdialysis of PCP-induced extracellular DA in the prefrontal cortex of freely moving rats. The note with it: p<0.01. The arrangement: species or system rat (Sprague-Dawley).
From the text: as §1, §2
Animals were placed in bowls, and probes were inserted and flushed with ACSF overnight. On the day of the study, a minimum of three samples were injected to determine baseline stability. Samples were collected for 20 min. and injected on-line (CMA/160, BAS). […]

Assay [3] relates to synaptic dopamine (11C-raclopride binding). Put plainly: PET study with 11C-raclopride, GVG and PCP in primates. It is filed as in vivo, Papio anubis baboons.

In the case of `c1ccc(C2(N3CCCCC3)CCCCC2)cc1` [PCP, Phencyclidine], the “increase of DA concentrations above baseline in the NAcc” value in assay [1] (PCP alone, 7 mg/kg i.p., baseline = 100%, p<0.01) amounted to 117%. The “increase of DA concentrations above baseline in the PFC” value in assay [2] (PCP alone, 7 mg/kg i.p., baseline = 100%) was 407%.

`C=CC(N)CCC(=O)O` (racemic) [GVG, 4-amino-5-hexanoic acid]: the “attenuation of the DA response to PCP in the NAcc” value is reported as “no significant inhibition” in assay [1] (GVG 150 mg/kg i.p. 2.5 hours prior to PCP (7 mg/kg)); 62% in assay [1] (GVG 300 mg/kg i.p. 2.5 hours prior to PCP (7 mg/kg), p<0.01); 67% in assay [1] (GVG 500 mg/kg i.p. 2.5 hours prior to PCP (7 mg/kg), p<0.001). In addition, the “attenuation of PFC DA activity (response to PCP)” value in assay [2] (GVG pretreatment (300 mg/kg group) i.p. 2.5 hours prior to PCP (7 mg/kg)) is listed as 67%. The “effect on PCP-induced increases in neostriatal synaptic DA assessed by PET” value in assay [3] (primate (baboon) brain) is reported as “significantly attenuated”. The “effect on PCP-induced diminution of 11C-raclopride binding (increase in synaptic dopamine)” value in assay [3] (prior intravenous 300 mg/kg GVG, PCP 1 mg/kg, four baboons, all cases) is on record as “prevented the diminution of ^11C-ralcopride binding”.
